From patent US12162867B2, “Inhibitors of RNA helicase DHX9 and uses thereof” (ACCENT THERAPEUTICS, INC., priority 2022, dated 2024)

tested on: circBRIP1 in HCT116 cells; experiment: DHX9 circBRIP1 cellular target engagement SYBR Green assay (qPCR); type: cell-based; conditions: Homo sapiens, HCT-116, circBRIP1, HCT116 cells; SyBr assay (marked ^+); read-out: DHX9 Cellular Target Engagement EC50

Structure (SMILES) | EC50 [nM]
CS(=O)(=O)Nc1cc(Br)cc(NC(=O)c2cc(-c3cnccn3)cs2)c1 [Example 18] | 98.4
Cc1cccc(O)c1-c1csc(C(=O)Nc2cc(Br)cc(NS(C)(=O)=O)c2)c1 [Example 19] | 2110
Cc1sc(C(=O)Nc2cc(Br)cc(NS(C)(=O)=O)c2)cc1-c1ccccc1O [Example 20] | 100

tested on: NCI-H747 cells; experiment: DHX9 cellular proliferation assay (CellTiter-Glo), NCI-H747 (CRC-MSS); type: cell-based; conditions: Homo sapiens, NCI-H747, NCI-H747, CRC-MSS; performed at Pharmaron; read-out: H747 (CRC-MSS) Antiproliferative IC50

Structure (SMILES) | IC50 [nM]
CS(=O)(=O)Nc1cc(Br)cc(NC(=O)c2cc(-c3cnccn3)cs2)c1 [Example 18] | > 10000
Cc1cccc(O)c1-c1csc(C(=O)Nc2cc(Br)cc(NS(C)(=O)=O)c2)c1 [Example 19] | > 10000
Cc1sc(C(=O)Nc2cc(Br)cc(NS(C)(=O)=O)c2)cc1-c1ccccc1O [Example 20] | 7220
CS(=O)(=O)Nc1cc(Cl)cc(NC(=O)c2cnn(-c3ncccc3OCc3cc(F)cc(F)c3)c2)c1 [Example 187] | > 10000

same assay, conditions: Homo sapiens, NCI-H747, NCI-H747; performed at Pharmaron; read-out: H747 (CRC-MSS) Antiproliferative IC50

Structure (SMILES) | IC50 [nM]
CC(Oc1cccnc1-c1cc(C(=O)Nc2cc(Cl)cc(NS(C)(=O)=O)c2)cn1C)c1cc(F)cc(C(F)(F)F)c1 (single isomer, unassigned) [Example 629, N-(3-chloro-5-methanesulfonamidophenyl)-5-{3-[1-[3-fluoro-5-(trifluoromethyl)phenyl]ethoxy]pyridin-2-yl}-1-methyl-1H-pyrrole-3-carboxamide] | > 10000
Cc1sc(C(=O)Nc2cc(Cl)cc(NS(C)(=O)=O)c2)cc1-c1ncc(N2CC(C(F)(F)F)C2)cc1F [Example 460, N-(3-chloro-5-(methylsulfonamido)phenyl)-4-(3-fluoro-5-(3-(trifluoromethyl)azetidin-1-yl)pyridin-2-yl)-5-methylthiophene-2-carboxamide] | 3800

tested on: LS411N cells; experiment: DHX9 cellular proliferation assay (CellTiter-Glo), LS411N (CRC-MSI); type: cell-based; conditions: Homo sapiens, LS-411N, LS411N, CRC-MSI-H; performed at Pharmaron; read-out: LS411N (CRC-MSI-H) Antiproliferative IC50

Structure (SMILES) | IC50 [nM]
CS(=O)(=O)Nc1cc(Br)cc(NC(=O)c2cc(-c3cnccn3)cs2)c1 [Example 18] | 546
Cc1cccc(O)c1-c1csc(C(=O)Nc2cc(Br)cc(NS(C)(=O)=O)c2)c1 [Example 19] | 1080
Cc1sc(C(=O)Nc2cc(Br)cc(NS(C)(=O)=O)c2)cc1-c1ccccc1O [Example 20] | 609
CS(=O)(=O)Nc1cc(Cl)cc(NC(=O)c2cnn(-c3ncccc3OCc3cc(F)cc(F)c3)c2)c1 [Example 187] | 77.3

same assay, conditions: Homo sapiens, LS-411N, LS411N; performed at Pharmaron; read-out: LS411N (CRC-MSI-H) Antiproliferative IC50

Structure (SMILES) | IC50 [nM]
CC(Oc1cccnc1-c1cc(C(=O)Nc2cc(Cl)cc(NS(C)(=O)=O)c2)cn1C)c1cc(F)cc(C(F)(F)F)c1 (single isomer, unassigned) [Example 629, N-(3-chloro-5-methanesulfonamidophenyl)-5-{3-[1-[3-fluoro-5-(trifluoromethyl)phenyl]ethoxy]pyridin-2-yl}-1-methyl-1H-pyrrole-3-carboxamide] | 69.2
Cc1sc(C(=O)Nc2cc(Cl)cc(NS(C)(=O)=O)c2)cc1-c1ncccc1OC(C)c1cncc(F)c1 (centres unmarked) [Example 630] | 98.3

tested on: circBRIP1 in HCT116 cells; experiment: DHX9 circBRIP1 cellular target engagement TaqMan Multiplex assay (qPCR); type: cell-based; conditions: Homo sapiens, HCT-116, circBRIP1, HCT116 cells; * Taqman assay was used; read-out: DHX9 Cellular Target Engagement EC50

Structure (SMILES) | EC50 [nM]
CCc1sc(C(=O)Nc2cc(Cl)cc(NS(C)(=O)=O)c2)cc1-c1ncc(F)cc1F [Example 588] | 461
CCc1sc(C(=O)Nc2cc(Cl)cc(NS(C)(=O)=O)c2)cc1-c1ccc(F)cn1 [Example 589] | 117
Cn1cc(C(=O)Nc2cc(Cl)cc(NS(C)(=O)=O)c2)cc1-c1ccc(N2CCN(C(=O)C(C)(C)C)CC2)cn1 [Example 591] | 130
Cn1cc(C(=O)Nc2cc(Cl)cc(NS(C)(=O)=O)c2)cc1-c1ccc(N2CCN(C(=O)C3CCCC3)CC2)cn1 [Example 592] | 303
Cn1cc(C(=O)Nc2cc(Cl)cc(NS(C)(=O)=O)c2)cc1-c1ccc(N2CCN(C(=O)C3CCC3)CC2)cn1 [Example 593] | 170
Cn1cc(C(=O)Nc2cc(Cl)cc(NS(C)(=O)=O)c2)cc1-c1ccc(N2CCN(C(=O)C3CC3)CC2)cn1 [Example 594] | 140
Cc1cc(N2CCC(F)(F)CC2)cnc1-c1cc(C(=O)Nc2cc(Cl)cc(NS(C)(=O)=O)c2)cn1C [Example 600] | 186
Cc1cc(N2CCC(F)(F)CC2)cnc1-c1cc(C(=O)Nc2cc(Cl)cc(NS(C)(=O)=O)c2)sc1C [Example 602] | 180
Cc1ccnc(OCc2cncc(F)c2)c1-c1cc(C(=O)Nc2cc(Cl)cc(NS(C)(=O)=O)c2)cn1C [Example 624] | 442
Cn1cc(C(=O)Nc2cc(Cl)cc(NS(C)(=O)=O)c2)cc1-c1ncc(F)cc1OCc1nnnn1C [Example 625] | 1010
Cc1sc(C(=O)Nc2cc(Cl)cc(NS(C)(=O)=O)c2)cc1-c1ncccc1OC(C)c1cncc(F)c1 (centres unmarked) [Example 630] | 89.2
Cc1sc(C(=O)Nc2cc(Cl)cc(NS(C)(=O)=O)c2)cc1-c1ncc(OC2CNC2)cc1F [Example 637] | 427
CN1CC(Oc2cnc(-c3cc(C(=O)Nc4cc(Cl)cc(NS(C)(=O)=O)c4)cn3CC(F)(F)F)c(F)c2)C1 [Example 638] | 62.1
CN1CC[C@H](Oc2cnc(-c3cc(C(=O)Nc4cc(Cl)cc(NS(C)(=O)=O)c4)cn3C)c(F)c2)C1 [Example 639, N-(3-chloro-5-methanesulfonamidophenyl)-5-(3-fluoro-5-{[(3S)-1-methylpyrrolidin-3-yl]oxy}pyridin-2-yl)-1-methylpyrrole-3-carboxamide] | 26.6
CN1CC[C@@H](Oc2cnc(-c3cc(C(=O)Nc4cc(Cl)cc(NS(C)(=O)=O)c4)cn3C)c(F)c2)C1 [Example 640] | 16.2
CN1CC[C@@H](Oc2cnc(-c3cc(C(=O)Nc4cc(Cl)cc(NS(C)(=O)=O)c4)cn3CC(F)(F)F)nc2)C1 [Example 641] | 55.2
CN1CC[C@H](Oc2cnc(-c3cc(C(=O)Nc4cc(Cl)cc(NS(C)(=O)=O)c4)cn3CC(F)(F)F)nc2)C1 [Example 642] | 94.5
Cc1sc(C(=O)Nc2cc(Cl)cc(NS(C)(=O)=O)c2)cc1-c1ccc(P(C)(C)=O)cn1 [Example 647] | 998
Cc1sc(C(=O)Nc2cc(Cl)cc(NS(C)(=O)=O)c2)cc1-c1ncc(P(C)(C)=O)cn1 [Example 648] | 471
CS(=O)(=O)Nc1cc(Cl)cc(NC(=O)c2cc(-c3ncc(OC4CN(S(C)(=O)=O)C4)cn3)n(CC(F)(F)F)c2)c1 [Example 651] | 535
CS(=O)(=O)Nc1cc(Cl)cc(NC(=O)c2cc(-c3ncc(F)cn3)n(C3CNC3)c2)c1 [Example 652] | 3770
Cc1sc(C(=O)Nc2cc(Cl)cc(NS(C)(=O)=O)c2)cc1-c1ncc(C(C)(O)C2CN(C)C2)cc1F (centres unmarked) [Example 653] | 292
Cc1cc(F)cc(C#N)c1-c1cc(C(=O)Nc2cc(Cl)cc(NS(C)(=O)=O)c2)cn1C [Example 659] | > 10000
Cc1sc(C(=O)Nc2cc(Cl)cc(NS(C)(=O)=O)c2)cc1N1C(=O)N(C)C(C)(c2ccccn2)C1=O (centres unmarked) [Example 660] | > 10000
Cc1cc(C(=O)Nc2cc(Cl)cc(NS(C)(=O)=O)c2)cn1-c1ncc(OC(C)(C)C)cc1F [Example 662] | 140
Cc1cc(C(=O)Nc2cc(Cl)cc(NS(C)(=O)=O)c2)cn1-c1ccc(OC(C)(C)C)cn1 [Example 663] | 124

Structure (SMILES) | EC50 [nM]
Cc1cc(C(=O)Nc2cc(Cl)cc(NS(C)(=O)=O)c2)cn1-c1ncc(F)cc1-c1cncc(F)c1 [Example 666] | 427
CC(C)n1cc(C(=O)Nc2cc(Cl)cc(NS(C)(=O)=O)c2)cc1-c1ncc(F)cn1 [Example 667] | 804
Cc1cc(C(=O)Nc2cc(Cl)cc(NS(C)(=O)=O)c2)cn1-c1ccc(OC2COC2)cn1 [Example 668] | 220
Cc1sc(C(=O)Nc2cc(Cl)cc(NS(C)(=O)=O)c2)cc1-c1ncc(OC(C)(C)C(=O)O)cn1 [Example 670] | > 10000
Cc1sc(C(=O)Nc2cc(Cl)cc(NS(C)(=O)=O)c2)cc1-c1ncc(OC(C)C(=O)O)cn1 (centres unmarked) [Example 671] | > 10000
Cc1cc(C(=O)Nc2cc(Cl)cc(NS(C)(=O)=O)c2)cn1-c1ncc(N2CC(F)(F)C2)cc1OC(C)C [Example 672] | 154
Cc1cc(C(=O)Nc2cc(Cl)cc(NS(C)(=O)=O)c2)cn1-c1ncc(N2CC(F)(F)C2)cc1OC1CCC1 [Example 673] | 130
Cc1sc(C(=O)Nc2cc(Cl)cc(NS(C)(=O)=O)c2)cc1-c1ncc(OC(C)CO)cn1 (centres unmarked) [Example 677] | 13.7
CN1CC(Oc2cnc(-c3cc(C(=O)Nc4cc(Cl)cc(NS(C)(=O)=O)c4)cn3CC(F)F)nc2)C1 [Example 679] | 196
Cc1sc(C(=O)Nc2cc(Cl)cc(NS(C)(=O)=O)c2)cc1-c1ncc(C2(O)CN(C)C2)cc1F [Example 681] | 133
Cc1sc(C(=O)Nc2cc(Cl)cc(NS(C)(=O)=O)c2)c(F)c1-c1ncc(OC(C)C)cn1 [Example 683] | > 10000
Cc1cccnc1-c1csc(C(=O)Nc2cc(Cl)cc(NS(C)(=O)=O)c2)c1C [Example 684] | > 10000
Cn1cc(C(=O)Nc2cc(Cl)cc(NS(C)(=O)=O)c2)cc1-c1ncc(OC2CN(C(=O)C3CC3)C2)cc1F [Example 697] | 329
CCS(=O)(=O)Nc1cc(Cl)cc(NC(=O)c2cc(-c3ncc(C(F)(F)F)cc3C)c(C)s2)c1 [Example 700] | 871
CS(=O)(=O)Nc1cc(Cl)cc(NC(=O)c2cc(-c3ccc(F)cn3)n(S(C)(=O)=O)c2)c1 [Example 701] | 638
COc1ccc(F)c(-c2cc(C(=O)Nc3cc(Cl)cc(NS(C)(=O)=O)c3)cn2C)n1 [Example 703] | 387
Cc1sc(C(=O)Nc2cc(Cl)cc(NS(C)(=O)=O)c2)cc1-c1ncc(S(C)(=O)=O)cn1 [Example 711] | 170
CS(=O)(=O)Nc1cc(Cl)cc(NC(=O)c2cc(-c3ncc(F)cn3)n(C3CC3)c2)c1 [Example 712] | 312
Cn1cc(C(=O)Nc2cc(Cl)cc(NS(C)(=O)=O)c2)cc1-c1ncc(N2CCN(C(=O)C3CC3)CC2)cc1F [Example 714] | 181
Cc1sc(C(=O)Nc2cc(Cl)cc(NS(C)(=O)=O)c2)nc1-c1ccc(F)cn1 [Example 716] | > 10000
Cc1nc(COc2cc(F)cnc2-c2cc(C(=O)Nc3cc(Cl)cc(NS(C)(=O)=O)c3)cn2C)cs1 [Example 724] | 224
Cc1noc(C)c1COc1cc(F)cnc1-c1cc(C(=O)Nc2cc(Cl)cc(NS(C)(=O)=O)c2)cn1C [Example 725] | 625
Cn1cc(C(=O)Nc2cc(Cl)cc(NS(C)(=O)=O)c2)cc1-c1ncc(F)cc1OCc1cnnn1C [Example 726] | 320
Cn1cc(C(=O)Nc2cc(Cl)cc(NS(C)(=O)=O)c2)cc1-c1ccccc1/C=C/c1cncc(F)c1 [Example 727] | 710
Cn1cc(C(=O)Nc2cc(Cl)cc(NS(C)(=O)=O)c2)cc1-c1ncc(F)cc1/C=C/c1cncc(F)c1 [Example 729] | 382
CCc1cncc(COc2cccnc2-c2cc(C(=O)Nc3cc(Cl)cc(NS(C)(=O)=O)c3)cn2C)c1 [Example 730] | 171

same assay, conditions: Homo sapiens, HCT-116, circBRIP1, HCT116 cells; cell carries no mark, SyBr or Taqman not indicated; read-out: DHX9 Cellular Target Engagement EC50

Structure (SMILES) | EC50 [nM]
Cc1sc(C(=O)Nc2cc(Cl)cc(NS(C)(=O)=O)c2)cc1-c1c(F)cc(F)c[n+]1[O-] [Example 736] | 372
